Assay results published in patent US20090137600A1, “Antiplatelet agent and process for producing the same” (priority 2004, published 2009).
Entries after “also recorded” stand apart in the source; their conditions may differ. Read-outs that look alike come from different tables or passages of the source. Each block holds one compound with its values, some of them ahead of it.

Experiments:
[1] = tested on: human platelet rich plasma (PRP), aggregation induced by collagen; experiment: Suppression of collagen-induced platelet aggregation in human PRP; format: cell-based
Description: (§1) After removing the PRP in the upper layer, the lower layer was further centrifuged at 1600 g for 10 minutes to separate the platelet poor plasma (PPP). 1 μL of the solution of Compound (I) or Comparative Examples 1 to 3 was added to 200 μL of PRP, and the mixture was allowed to stand at 37° C. for 2 minutes. Platelet aggregation was then induced by adding 2 μL of collagen to the mixture. Platelet aggregation rate was measured by using PAM-12C (SSR Engineering).

[2] = tested on: platelet aggregation induced by collagen; experiment: Inhibition of platelet aggregation induced by collagen (general statement); format: cell-based; conditions: species not given
[3] = tested on: platelet aggregation induced by collagen in PRP of guinea pig; experiment: Evaluation of oral absorption: ex vivo collagen-induced platelet aggregation in PRP of orally dosed guinea pig; conditions: for ex vivo inhibition of the platelet aggregation by the collagen: general statement, no dose given
[4] = tested on: guinea pig platelet rich plasma (PRP), aggregation induced by collagen; experiment: Suppression of collagen-induced platelet aggregation in guinea pig PRP; format: cell-based; conditions: Cavia porcellus
Description: as §1

COX-2 = target: T1, COX-2 (Homo sapiens, UniProt P35354); experiment: Inhibition of cyclooxygenase-2 (COX inhibitor screening assay kit, PGF2α ELISA); format: biochemical; conditions: for IC50 for COX-2 relative to IC50 of platelet aggregation suppression: ratio COX-2 IC50 / platelet aggregation IC50
T1 sequence (P35354 18-604): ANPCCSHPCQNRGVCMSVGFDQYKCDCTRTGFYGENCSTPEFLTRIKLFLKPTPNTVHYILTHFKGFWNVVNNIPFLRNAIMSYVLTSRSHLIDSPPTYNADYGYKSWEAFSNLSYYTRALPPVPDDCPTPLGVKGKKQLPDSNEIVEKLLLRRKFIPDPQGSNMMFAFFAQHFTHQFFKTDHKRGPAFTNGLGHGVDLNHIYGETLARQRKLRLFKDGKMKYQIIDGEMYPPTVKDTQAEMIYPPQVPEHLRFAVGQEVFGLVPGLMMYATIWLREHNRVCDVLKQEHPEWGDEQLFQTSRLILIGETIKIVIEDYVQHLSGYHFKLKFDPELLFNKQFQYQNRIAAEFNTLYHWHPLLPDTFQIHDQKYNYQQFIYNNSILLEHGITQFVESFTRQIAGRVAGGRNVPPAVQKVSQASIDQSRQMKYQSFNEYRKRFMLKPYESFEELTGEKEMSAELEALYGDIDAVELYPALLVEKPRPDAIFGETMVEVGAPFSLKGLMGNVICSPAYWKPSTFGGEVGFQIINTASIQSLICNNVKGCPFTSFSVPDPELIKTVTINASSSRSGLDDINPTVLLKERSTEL
Description: (§2) Screening assay kit for COX inhibitor (Cayman Chemical Company, Catalog Nos. 560101 and 560121) were used to measure inhibitory activity of each compound for COX-1 and COX-2.
(§3) Reaction buffer, heme, arachidonic acid, SnCl2, EIA buffer, wash buffer, prostaglandin (PG) screening EIA standard, PG screening acetylcholinesterase (AchE) tracer ([…]), and PG screening EIA antiserum were prepared before the measurement.
(§4) The reaction solution containing various concentration of the compound of the Examples and COX-1 or COX-2 was allowed to stand at 37° C. for 10 minutes. 10 μL of arachidonic acid was added, and the reaction solution was allowed to stand at 37° C. for 2 minutes. After the reaction, 50 μL of 1N hydrochloric acid was added to cease the reaction, and 100 μL of SnCl2 solution was added, and the reaction solution was allowed to stand at room temperature for 5 minutes.
(§5) 50 μL of an antiserum (rabbit anti-PGF2α antibody) was added to each well of a 96 well plate which had been coated with mouse anti-rabbit IgG, and to each well was added 50 μL of a 2000-fold dilution of the PGF2α producing reaction solution, and then, 50 μL of the AchE tracer. The reaction mixture was allowed to stand at room temperature for 18 hours. The wells were washed 5 times with the wash buffer to remove the excessive AchE tracer, and 200 μL of Ellman reagent was added. After allowing to stand in a dark room for 60 minutes, the absorbance was measured at 405 nm.
(§6) Standard curve was depicted by using PG screening EIA standard, and amount of the PGF2α produced was determined from the absorbance.

[5] = Crystal stability on storage at 25° C. and 0%, 52% or 93% RH for 3 days; format: physicochemical; design: key to Crystal form (change): No: No change; Yes: Some change
Description: Compounds (1a), (1b), and (1c) as well as various salts of Compound (1a) produced in the Examples as described above were stored at 25° C. and at a relative humidity of 0%, 52%, or 93% for 3 days to evaluate change in weight and crystal form. Change in crystal form was measured in the case of fumarate at a low humidity, and in the case of Compound (1a) and its citrate at a high humidity. The salts of Compound (1a) were produced according to the method of Example 3.

COX-1 = target: T2, COX-1 (Ovis aries, UniProt P05979); experiment: Inhibition of cyclooxygenase-1 (COX inhibitor screening assay kit, PGF2α ELISA); format: biochemical; conditions: for IC50 for COX-1 relative to IC50 of platelet aggregation suppression: ratio COX-1 IC50 / platelet aggregation IC50
T2 sequence (P05979 25-600): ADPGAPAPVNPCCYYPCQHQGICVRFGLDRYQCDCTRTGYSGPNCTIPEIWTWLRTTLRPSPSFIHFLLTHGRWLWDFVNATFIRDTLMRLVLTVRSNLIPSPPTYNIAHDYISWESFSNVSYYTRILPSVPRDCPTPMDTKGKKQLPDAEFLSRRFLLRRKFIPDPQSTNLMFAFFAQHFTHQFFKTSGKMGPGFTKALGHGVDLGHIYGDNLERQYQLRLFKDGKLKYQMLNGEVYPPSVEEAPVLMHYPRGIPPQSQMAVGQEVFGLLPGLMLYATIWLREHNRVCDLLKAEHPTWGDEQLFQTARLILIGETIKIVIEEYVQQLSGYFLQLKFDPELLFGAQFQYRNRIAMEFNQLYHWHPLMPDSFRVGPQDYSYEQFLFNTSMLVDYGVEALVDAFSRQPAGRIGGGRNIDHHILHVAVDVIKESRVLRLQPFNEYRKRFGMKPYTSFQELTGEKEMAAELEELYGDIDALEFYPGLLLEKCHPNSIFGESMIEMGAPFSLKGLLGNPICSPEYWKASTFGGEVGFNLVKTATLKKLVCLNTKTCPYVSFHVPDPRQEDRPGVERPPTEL
Description: as §2, §3, §4, §5, §6

[6] = Solubility in water, JP1 solution and JP2 solution; format: physicochemical
[7] = Safety (general statement)
thrombogenesis [8] = experiment: Model of thrombosis induced by high shear stress; format: in vivo
thrombogenesis [9] = experiment: Thrombus model induced by iron chloride; format: in vivo
[10] = Stability under wet heat, dry heat and beam irradiation; format: physicochemical

Compound: COc1ccc(-n2nc(C(=O)N3CCN(C)CC3)cc2-c2ccccn2)nn1 [Compound (1a), [1-(6-methoxypyridazine-3-yl)-5-(pyridine-2-yl)-1H-pyrazole 3-yl](4-methylpiperazine-1-yl)methanone]
IC50 [1]: 1.1 to 1.3 µM | inhibition of the platelet aggregation induced by collagen [2]: remarkable inhibition | ex vivo inhibition of the platelet aggregation by the collagen [3]: strong ex vivo inhibition | oral absorbability [3]: excellent oral absorption | IC50 [4]: 0.13 µM | IC50 (COX-2): > 50 µM | IC50 for COX-2 relative to IC50 of platelet aggregation suppression (COX-2): 100 fold | Crystal form (change) ([5]; 0% RH): No^1) | Weight change (%) ([5]; 0% RH): −0.41% | Crystal form (change) ([5]; 52% RH): No | Weight change (%) ([5]; 52% RH): 0.41% | Crystal form (change) ([5]; 93% RH): Yes | Weight change (%) ([5]; 93% RH): 7.99% | IC50 (COX-1): 97 µM | IC50 for COX-1 relative to IC50 of platelet aggregation suppression (COX-1): 100 fold

Compound: COc1ccc(-n2nc(C(=O)N3CCN(C)CC3)cc2-c2ccccn2)nn1.Cl [Compound (1b), [1-(6-Methoxypyridazine-3-yl)-5-(pyridine-2-yl)-1H-pyrazole-3-yl] (4-methylpiperazine-1-yl)methanone Monohydrochloride]
solubility in water, JP1 solution and JP2 solution [6]: good solubility | safety [7]: no safety problems | IC50 ([1]; Homo sapiens, Platelet): 0.86 µM | inhibition of the platelet aggregation induced by collagen [2]: remarkable inhibition | inhibition of the thrombogenesis (thrombogenesis [8]): remarkable inhibition | ex vivo inhibition of the platelet aggregation by the collagen [3]: strong ex vivo inhibition | platelet aggregation induced by collagen, ex vivo ([3]; guinea pig, 10 mg/kg oral, 1 hour after administration, collagen 0.8 μg to 2.5 μg): remarkably suppressed | oral absorbability ([3]; Monohydrochloride): excellent oral absorption; also recorded: sufficiently absorbed; also recorded: favorable oral absorbability | IC50 (COX-2): > 100 µM | IC50 for COX-2 relative to IC50 of platelet aggregation suppression (COX-2): 100 fold | suppression of thrombogenesis (thrombogenesis [9]): remarkable suppression | Crystal form (change) ([5]; 0% RH): No | Weight change (%) ([5]; 0% RH): 0.20% | Crystal form (change) ([5]; 52% RH): No | Weight change (%) ([5]; 52% RH): 0.58% | Crystal form (change) ([5]; 93% RH): Yes | Weight change (%) ([5]; 93% RH): 11.54% | IC50 (COX-1): > 100 µM | IC50 for COX-1 relative to IC50 of platelet aggregation suppression (COX-1): 100 fold

Compound: COc1ccc(-n2nc(C(=O)N3CCN(C)CC3)cc2-c2ccccn2)nn1 [Compound (1c), [1-(6-methoxypyridazine-3-yl)-5-(pyridine-2-yl)-1H-pyrazole-3-yl] (4-methylpiperazine-1-yl)methanone mono-1-tartrate]
solubility in water, JP1 solution and JP2 solution [6]: highly soluble | inhibition of the platelet aggregation induced by collagen [2]: remarkable inhibition | Crystal form (change) ([5]; 0% RH): No | Weight change (%) ([5]; 0% RH): −0.20% | Crystal form (change) ([5]; 52% RH): No | Weight change (%) ([5]; 52% RH): 0.00% | Crystal form (change) ([5]; 93% RH): No | Weight change (%) ([5]; 93% RH): 0.19% | stability under wet heat, dry heat, and beam irradiation [10]: extremely stable

Compound: Citrate
Crystal form (change) ([5]; 0% RH): No | Weight change (%) ([5]; 0% RH): 0.00% | Crystal form (change) ([5]; 52% RH): No | Weight change (%) ([5]; 52% RH): 0.00% | Crystal form (change) ([5]; 93% RH): Yes | Weight change (%) ([5]; 93% RH): 2.45%

Crystal form (change) ([5]; 0% RH): Yes^2) | Weight change (%) ([5]; 0% RH): −5.65% | Crystal form (change) ([5]; 52% RH): No | Weight change (%) ([5]; 52% RH): 1.60% | Crystal form (change) ([5]; 93% RH): No | Weight change (%) ([5]; 93% RH): 0.59%
Compound: Fumarate

Crystal form (change) ([5]; 0% RH): No | Weight change (%) ([5]; 0% RH): 0.00% | Crystal form (change) ([5]; 52% RH): No | Weight change (%) ([5]; 52% RH): 0.40% | Crystal form (change) ([5]; 93% RH): No | Weight change (%) ([5]; 93% RH): 0.39%
Compound: Maleate
